Test results as given in US6737383B1, “Herbicidal oxadiazolidines” (priority 1999, dated 2004).

Key:
morningglory = experiment: Test B pre/postemergence morningglory; format: in vivo, Ipomoea hederacea
Summary of the method: (§1)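 Test chemicals in a non-phytotoxic solvent mixture with surfactant were sprayed preemergence onto planted seeds and postemergence onto plants 2 to 18 cm tall (1- to 4-leaf stage). After twelve to sixteen days in a greenhouse, injury was visually rated against untreated controls from 0 (no effect) to 10 (complete control).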

rape = experiment: Test B pre/postemergence rape; format: in vivo, Brassica napus
Summary of the method: as §1

wheat = experiment: Test B pre/postemergence wheat; format: in vivo, Triticum aestivum
Summary of the method: as §1

duck salad = experiment: Test B flood test duck salad; format: in vivo, Heteranthera limosa
Summary of the method: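 Each value is a visual injury score relative to controls, with 10 meaning complete control and 0 no effect. Evaluation took place twelve to sixteen days after the 2-leaf-stage plants were treated and kept in the greenhouse.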

[1] = Preemergence, Rate 62 g/ha, scale of 0 to 10 where 0 is no effect and 10 is complete control
[2] = Preemergence, Rate 125 g/ha, 0 is no effect, 10 is complete control
[3] = Preemergence, Rate 250 g/ha, scale 0 to 10, 0 is no effect, 10 is complete control
[4] = Preemergence, Rate 500 g/ha, scale of 0 to 10 where 0 is no effect and 10 is complete control
[5] = Rate 62 g/ha, Postemergence, scale of 0 to 10 where 0 is no effect and 10 is complete control
[6] = Rate 125 g/ha, Postemergence, scale 0 to 10
[7] = Rate 500 g/ha, Postemergence, scale 0 to 10
[8] = Rate 62 g/ha, headed Pre-emergence (flood test species), scale 0 to 10 (0 no effect, 10 complete control)
[9] = Rate 125 g/ha, Pre-emergence, flood test species, scale 0 to 10 where 0 is no effect and 10 is complete control
[10] = Rate 250 g/ha, Pre-emergence, flood-test species, scale 0 to 10, 0 is no effect, 10 is complete control
[11] = Preemergence, Rate 31 g/ha, visual rating, scale 0 to 10 (0 no effect, 10 complete control)
[12] = Preemergence, Rate 250 g/ha, scale of 0 to 10 where 0 is no effect and 10 is complete control
[13] = Rate 31 g/ha, Postemergence, scale 0 to 10
[14] = Rate 125 g/ha, Preemergence, scale of 0 to 10 where 0 is no effect and 10 is complete control
[15] = Rate 31 g/ha, Pre-emergence section (flood test species), scale 0 to 10
[16] = Rate 500 g/ha, Postemergence, scale 0 to 10, 0 no effect, 10 complete control
[17] = Rate 500 g/ha, Pre-emergence, flood test species, scale 0 to 10 (0 no effect, 10 complete control)
[18] = Postemergence, Rate 1000 g/ha, scale 0 to 10 (0 no effect, 10 complete control)
[19] = Rate 125 g/ha, Postemergence, scale of 0 to 10 where 0 is no effect and 10 is complete control
[20] = Rate 250 g/ha, Postemergence, scale of 0 to 10 where 0 is no effect and 10 is complete control
[21] = Rate 1000 g/ha, Preemergence, scale 0 to 10 (0 no effect, 10 complete control)
[22] = Pre-emergence, Rate 1000 g/ha, scale 0 to 10 (0 no effect, 10 complete control)
[23] = Postemergence, Rate 31 g/ha, visual rating, scale 0 to 10 (0 no effect, 10 complete control)
[24] = Rate 62 g/ha, Postemergence, scale 0 to 10 (0 no effect, 10 complete control)

| SMILES | Morningglory plant response rating (morningglory; [1]) | Plant response rating, Morningglory (morningglory; [4]) | Rape plant response rating (rape; [1]) | Wheat plant response rating (wheat; [1]) | Ducksalad plant response rating (duck salad; [8]) | Ducksalad plant response rating (duck salad; [9]) | Ducksalad plant response rating (duck salad; [10]) | Morningglory plant response rating (morningglory; [12]) | Morningglory plant response rating (morningglory; [14]) | Rape plant response rating (rape; [12]) | Rape plant response rating (rape; [14]) | Wheat plant response rating (wheat; [12]) | Wheat plant response rating (wheat; [14]) | Ducksalad plant response rating (duck salad; [17]) | Morningglory plant response rating (morningglory; [19]) | Plant response rating, Morningglory (morningglory; [20]) | Rape plant response rating (rape; [19]) | Plant response rating, Rape (rape; [20]) | Wheat plant response rating (wheat; [19]) | Plant response rating, Wheat (wheat; [20]) | also measured |
| --- | --- | --- | --- | --- | --- | --- | --- | --- | --- | --- | --- | --- | --- | --- | --- | --- | --- | --- | --- | --- | --- |
| CSc1ccc(N(C(=O)n2oc(=O)n(-c3ccccc3C)c2=O)C(C)C)cc1 [Compound 205] | 0 | 0 | 0 | 0 | 0 | 0 | 0 |  |  |  |  |  |  |  |  |  |  |  |  |  | Morningglory plant response rating (0 to 10 scale) (morningglory; [2]): 0; Morningglory plant response rating (morningglory; [3]): 0; Morningglory plant response rating (morningglory; [5]): 0; Morningglory plant response rating (morningglory; [6]): 0; Plant response rating (0 to 10; 0 is no effect, 10 is complete control), Morningglory (morningglory; Rate 250 g/ha, Postemergence): 1; Morningglory plant response rating (morningglory; [7]): 2; Rape plant response rating (0 to 10 scale) (rape; [2]): 0; Rape plant response rating (rape; [3]): 0; Plant response rating, Rape (rape; [4]): 0; Rape plant response rating (rape; [5]): 0; Rape plant response rating (rape; [6]): 0; Plant response rating (0 to 10; 0 is no effect, 10 is complete control), Rape (rape; Rate 250 g/ha, Postemergence): 0; Rape plant response rating (rape; [7]): 0; Wheat plant response rating (wheat; [3]): 0; Plant response rating, Wheat (wheat; [4]): 0; Wheat plant response rating (wheat; [5]): 0; Wheat plant response rating (wheat; [6]): 0; Plant response rating (0 to 10; 0 is no effect, 10 is complete control), Wheat (wheat; Rate 250 g/ha, Postemergence): 0; Plant response rating, Ducksalad (duck salad; Rate 500 g/ha, headed Pre-emergence (flood test species), scale 0 to 10 (0 no effect, 10 complete control)): 0 |
| CC(=O)Cn1c(=O)on(C(=O)N(c2ccc(F)cc2)C(C)C)c1=O [Compound 217] | 0 |  | 0 | 0 | 0 | 0 | 0 | 0 | 0 | 4 | 0 | 8 | 3 |  |  |  |  |  |  |  | Morningglory plant response rating (morningglory; [11]): 0; Morningglory plant response rating (morningglory; [13]): 0; Morningglory plant response rating (morningglory; [5]): 0; Morningglory plant response rating (morningglory; [6]): 0; Plant response rating (0 to 10; 0 is no effect, 10 is complete control), Morningglory (morningglory; Rate 250 g/ha, Postemergence): 0; Rape plant response rating (rape; [11]): 0; Rape plant response rating (rape; [13]): 0; Rape plant response rating (rape; [5]): 0; Rape plant response rating (rape; [6]): 0; Plant response rating (0 to 10; 0 is no effect, 10 is complete control), Rape (rape; Rate 250 g/ha, Postemergence): 0; Wheat plant response rating (wheat; [11]): 0; Wheat plant response rating (wheat; [5]): 0; Wheat plant response rating (wheat; [6]): 2; Plant response rating (0 to 10; 0 is no effect, 10 is complete control), Wheat (wheat; Rate 250 g/ha, Postemergence): 3; Ducksalad plant response rating (duck salad; [15]): 0 |
| COc1cc(C)cc(C)c1-n1c(=O)on(C(=O)N(c2ccc(F)cc2F)C(C)C)c1=O [Compound 223] | 0 | 1 | 0 | 0 | 0 | 0 | 0 | 1 | 1 | 0 | 0 | 0 | 0 | 0 |  |  |  |  |  |  | Morningglory plant response rating (morningglory; [5]): 1; Morningglory plant response rating (morningglory; [6]): 3; Plant response rating (0 to 10; 0 is no effect, 10 is complete control), Morningglory (morningglory; Rate 250 g/ha, Postemergence): 4; Morningglory plant response rating (morningglory; [16]): 6; Plant response rating, Rape (rape; [4]): 0; Rape plant response rating (rape; [5]): 0; Rape plant response rating (rape; [6]): 0; Plant response rating (0 to 10; 0 is no effect, 10 is complete control), Rape (rape; Rate 250 g/ha, Postemergence): 0; Rape plant response rating (rape; [16]): 0; Plant response rating, Wheat (wheat; [4]): 0; Wheat plant response rating (wheat; [5]): 0; Wheat plant response rating (wheat; [6]): 0; Plant response rating (0 to 10; 0 is no effect, 10 is complete control), Wheat (wheat; Rate 250 g/ha, Postemergence): 0; Wheat plant response rating (wheat; [16]): 0 |
| CCOC(=O)C(C)N(C(=O)n1oc(=O)n(C2CCCCC2)c1=O)c1ccc(F)cc1 (stereo not shown) [Compound 280] |  | 0 |  |  |  | 0 | 0 | 0 | 0 | 0 | 0 | 0 | 0 | 0 | 0 | 0 | 0 | 0 | 0 | 0 | Morningglory plant response rating (morningglory; [18]): 0; Morningglory plant response rating (morningglory; [16]): 0; Plant response rating, Morningglory (morningglory; [21]): 0; Rape plant response rating (rape; [18]): 0; Plant response rating, Rape (rape; [4]): 0; Rape plant response rating (rape; [16]): 0; Plant response rating, Rape (rape; [21]): 0; Wheat plant response rating (wheat; [18]): 0; Plant response rating, Wheat (wheat; [4]): 0; Wheat plant response rating (wheat; [16]): 0; Plant response rating, Wheat (wheat; [21]): 0; Ducksalad plant response rating (duck salad; [22]): 0 |
| CC(C)N(C(=O)n1oc(=O)n(C(C)C)c1=O)c1cnccn1 [Compound 296] | 0 |  | 0 | 0 | 0 | 0 | 0 | 0 | 0 | 0 | 0 | 0 | 0 |  | 0 | 1 | 0 | 0 | 0 | 0 | Morningglory plant response rating (morningglory; [23]): 0; Morningglory plant response rating (morningglory; [24]): 0; Rape plant response rating (rape; [23]): 0; Rape plant response rating (rape; [24]): 0; Wheat plant response rating (wheat; [23]): 0; Wheat plant response rating (wheat; [24]): 0; Ducksalad plant response rating (duck salad; [15]): 0 |
| Cc1ccccc1-n1c(=O)on(C(=O)N(c2ccc(OC(F)(F)F)cc2)C(C)C)c1=O [Compound 300] | 0 |  | 0 | 0 | 0 | 0 | 0 | 0 |  | 0 |  | 0 |  | 0 | 0 | 0 | 0 | 0 | 0 | 0 | Morningglory plant response rating (0 to 10 scale) (morningglory; Preemergence, Rate 125 g/ha): 0; Morningglory plant response rating (morningglory; [4]): 0; Morningglory plant response rating (morningglory; [24]): 0; Rape plant response rating (0 to 10 scale) (rape; Preemergence, Rate 125 g/ha): 0; Rape plant response rating (rape; [4]): 0; Rape plant response rating (rape; [24]): 0; Wheat plant response rating (0 to 10 scale) (wheat; Preemergence, Rate 125 g/ha): 0; Wheat plant response rating (wheat; [4]): 2; Wheat plant response rating (wheat; [24]): 0 |
| C=CCn1c(=O)on(C(=O)N(CC)C2CCCCC2)c1=O [Compound 307] | 0 |  | 0 | 0 |  | 0 | 0 | 0 |  | 0 |  | 0 |  | 0 | 2 | 2 | 0 | 0 | 0 | 0 | Morningglory plant response rating (0 to 10 scale) (morningglory; Preemergence, Rate 125 g/ha): 0; Morningglory plant response rating (morningglory; [4]): 0; Morningglory plant response rating (morningglory; [24]): 0; Rape plant response rating (0 to 10 scale) (rape; Preemergence, Rate 125 g/ha): 0; Rape plant response rating (rape; [4]): 0; Rape plant response rating (rape; [24]): 0; Wheat plant response rating (0 to 10 scale) (wheat; Preemergence, Rate 125 g/ha): 0; Wheat plant response rating (wheat; [4]): 0; Wheat plant response rating (wheat; [24]): 0; Ducksalad plant response rating (duck salad; [22]): 0 |
